Series [1] concerns rat hippocampal brain slices. Put plainly: THA-induced glutamate release in acute hippocampal brain sections. The class given is cell-based. As to conditions: 400 min pretreatment. An excerpt:
This was accomplished using THA, a heteroexchange drug that is also a substrate for the glutamate transporter. For each molecule of THA transported into the cell, one molecule of glutamate is released. Therefore, THA allows the induction of glutamate release.

The subject of series [2] is hippocampal astrocytes. The series can be described thus: Extracellular glutamate [Glu]o released by astrocyte cultures (bioluminescence). The class given is cell-based, rat. As to conditions: Rattus norvegicus, Astrocyte, read-out: % of control [Glu]0.
In series [3] the test system is hippocampal astrocytes. The series can be described thus: Removal of an exogenous glutamate challenge by astrocyte cultures, [Glu]o over time. The series is classed as cell-based, rat. The protocol:
The bioluminescence method for detection was used for glutamate in solution as described by Fosse et al. (1986) with only minor modifications. The glutamate-specific reagent mixture contained potassium phosphate (pH 7.0) 25 mM, Triton X-100 40 μg/ml, dithiothreitol 100 μM, Myristyl aldehyde 40 μM (Aldrich; Milwaukee, Wis.), β-NAD 2 mM, ADP 250 μM, FMN 2.5 μM, luciferase 40 μg/ml, NAD(P)H:FMN oxidoreductase 400 mU/ml, glutamate dehydrogenase 0.5 mg/ml. All experiments were performed with a Monolight 2010 luminomitor (Analytical Luminescence Lab; Ann Arbor, Mich.).
For experiments in which [Glu]o concentrations were assessed by the bioluminescence method, cells were maintained in glutamate-depleted medium in the presence or absence of the agonists/antagonist combination of interest. To assess chronic effects, glutamate analogues were applied for 24 hours unless indicated otherwise. After the incubation period, the stimulation media (containing drugs of interest) were aspirated and cells were washed twice with MEM and allowed to remain for 30 to 60 minutes in drug free MEM supplemented with 20 mM glucose prior to taking media samples for glutamate measurements. To assess acute drug effects, untreated cells were washed and the reagent of interest applied in glucose supplemented MEM. Cells were harvested in 0.3 N NaOH and neutralized with 0.3 N HCl. Aliquots were stored in -20° C. for protein and [Glu]i determination. Glutamate standards used for calibration were prepared in MEM (For [Glu]i in 0.15 N NaCl).
To delineate the role of mGluR receptors on [Glu]o levels, hippocampal astrocytes were challenged with 50 μM glutamate and cells that were pretreated with trans-ACPD were compared to control cultures (FIG. 2A). Control astrocytes rapidly remove glutamate from the medium, and after ≈3 hours, [Glu]o stabilized at values to 1 μM. […] Mean values were 0.96±0.1 μM in control astrocytes, as compared to 0.18±0.03 μM in trans-ACPD treated astrocytes.
Glutamate undoubtedly is the endogenous ligand for mGluRs. However, it was necessary to establish whether glutamate itself can induce the modulation in glutamate levels observed, and thus can mimic the modulatory effects observed with ACPD. These studies are difficult since, unlike ACPD, glutamate is also a substrate for the transporter, and therefore, is readily removed. Experiments were carried out in two ways, each yielding similar results. First, cells were preincubated for 24 hours with 100 μM glutamate, then washed and [Glu]o measured in MEM, or secondly, glutamate was directly applied in MEM and changes in [Glu]o were monitored.

The subject of series [4] is hippocampal astrocytes. Put plainly: 3H-D-aspartate (glutamate/aspartate) uptake in astrocytes. The series is classed as cell-based, rat. As to conditions: Rattus norvegicus, Astrocyte; 0.5 mM, 24 hour exposure; average of 25 experiments; read-out: glutamate/aspartate uptake enhanced by. The protocol: Uptake procedures were essentially identical to those previously described (Kimelberg et al. 1989; Ye et al., 1996). Briefly, 5-10 minutes before assessing uptake, astrocytes were washed and kept in a solution containing (in mM): NaCl 122, KCl 3, MgSO4 0.4, KH2 PO4 1.2, NaHCO3 25, D-glucose 10, and CaCl2 1.3, at 37° C., bubbled with 5%/95% CO2 /O2. Then the cells were switched to the above solution supplemented with 0.1 mM D-aspartate and 0.4 μCi/ml ^3 H-D-aspartate. Glutamate/aspartate uptake was determined over a 10 or 30 minutes period and was terminated by three quick washes, twice with ice cold 0.29 M sucrose solution with 10 mM Tris Nitrate, 0.5 mM Ca(NO3)2, (pH 7.40 by NaOH) and then with ice cold PBS. Cells were then harvested after a 30 minute incubation in 0.3 N NaOH solution (37° C.) and ^3 H activity was determined in a liquid scintillation counter (Beckman). Total uptake was normalized to protein content to eliminate variability due to cell number. Protein levels were determined using the bicinchoninic acid (BCA) assay (Pierce; Rockford, Ill.).

The test system of series [5] is glial cells. Put plainly: Glial glutamate uptake and extracellular glutamate with MPTP/MPP+ and t-ACPD. The series is classed as cell-based. The procedure:
The normally low glutamate levels in the brain are established and maintained in glial cells by non-vesicular uptake of glutamate through a Na^+ -dependent transporter (FIG. 14). Once taken up, glutamate can be converted to glutamine and recycled for neurotransmitter synthesis in neurons (FIG. 14). If glial cells in culture are exposed to high glutamate concentrations (e.g., 100 μM), they will remove it from the extracellular space and essentially "detoxify" the neuronal environment. […] Under those conditions, extracellular glutamate levels are elevated to 7 μM (FIG. 16), which is toxic to most surrounding neurons.
Impaired glial glutamate transport may contribute to the loss of dopaminergic neurons in Parkinson's disease. Thus, stimulation of this pathway would be neuroprotective. A drug and its receptor on glial cells was identified that allows enhanced glutamate detoxification. Specifically, trans-ACPD (trans-1-amino-1,3-cyclopentane dicarboxylic acid) (t-ACPD), a group II metabotropic glutamate receptor agonist, enhanced glial glutamate uptake (FIG. 17). It's actions were 2-fold; (i) it enhanced glutamate uptake by up to 80%, and (ii) it decreased non-specific release of glutamate, effectively trapping glutamate inside glial cells. In fact, the release of glutamate decreased to such a large extent that it almost made the transporter rectify, e.g. allowing only influx and preventing outflow of glutamate (FIG. 18). […] Using antibodies and further pharmacological studies, the receptor that is responsible for these effects has been identified as mGluR2/3.
In Parkinson's disease, it is believed that neurons may die of excitotoxic exposure to glutamate. The present invention determined that MPTP directly effects glutamate uptake into astrocytes (FIG. 21, top left). […] This increased release may be sufficient to explain some of the subsequent neurodegeneration.

The subject of series [6] is dopaminergic neurons. Put plainly: Cell death of dopaminergic neurons induced by glutamate or MPTP. The class given is cell-based, rat. The procedure: Cell death of dopaminergic neurons induced by glutamate, and the role of glial glutamate transport in protection of cell death at the cellular level were studied as it relates to Parkinson's disease. […] Thus, glutamate concentrations as low as 3-5 μM induced rapid cell death (FIGS. 11 and 12). Glutamate concentrations were also measured in the normal brain. They are typically around 1 μM, below the toxic level for dopaminergic neurons. […] This late onset of glutamate toxicity is compatible with the late onset of Parkinson's disease.

In series [7] the test system is GLT-1. As to conditions: cited from earlier work.
Where [8] appears, read: 500 μM for 24 hour before 50 μM glutamate challenge.

Like-named read-outs stand apart in the source and are kept apart here.

For the compound `N[C@@]1(C(=O)O)CC[C@@H](C(=O)O)C1` (relative stereo) [trans-ACPD, trans-1-aminocyclopentane-1,3-dicarboxylic acid], in series [1], the “reduction of THA-induced glutamate release” value is given as “≈ 40%”. In addition, the activity at 100 µM in series [2] (432 h, cells P9, 18 days in vitro, 250 μM agonist) was determined as 46.3 ± 4.3%; in series [2] (432 h, cells P23, 18 days in vitro, 200 μM agonist) it was 12.4 ± 1.2%; in series [2] (456 h, cells P21, 19 days in vitro, 100 μM agonist), 23.1 ± 1.4%; in series [2] (624 h, cells P15, 26 days in vitro, 100 μM agonist) it was 20 ± 6.1%; in series [2] (672 h, cells P2, 28 days in vitro, 500 μM agonist), 78.2 ± 10.1%; in series [2] (cells P0, 60 days in vitro, 100 μM agonist) it was 60.6 ± 6.3%. For the same compound, the activity at 100 µM was 59.6 ± 10.1% in series [2] (cells P2, 25 days in vitro, 500 μM agonist); 51.3 ± 5.7% in series [2] (cells P2, 34 days in vitro, 100 μM agonist); 19.5 ± 2.7% in series [2] (cells P40, 31 days in vitro, 100 μM agonist). For the same compound, in series [3] (setting [8]), the “steady-state [Glu]o after glutamate challenge” value is 0.18 ± 0.03 µM. Besides, the “steady-state [Glu]o lower than in control cultures” value in series [3] (setting [8]) came to 5 fold. Further, the activation at 500 µM in series [4] stood at 31 ± 2.7%. Also, in series [5], the “enhancement of glutamate uptake” value was “up to 80%”. Moreover, in series [5] (neuron-glial cocultures (FIG. 19)), the “reduction of extracellular glutamate levels versus control” value is recorded as “up to 100%”.

For the compound `N[C@@H](CCC(=O)O)C(=O)O` [glutamate], the IC50 – broadly, the midpoint of a concentration-inhibition curve – in series [6] is around 5 µM. Moreover, the neuronal cell death result in series [6] (0.03 mM) was “neurotoxic to most neurons”. Besides, the results for the “susceptibility of neurons to glutamate by age” value in series [6] (adult rats (>30 days)) and in series [6] (young rats) were “highest glutamate sensitivity” and “relatively insensitive”, respectively. The “glutamate concentrations inducing rapid cell death” value in series [6] (rat) was in the range of 3 to 5 µM. In addition, the Km (as a rule, the substrate concentration at which the rate is half of its maximum) in series [7] is 2 µM. For the same compound, the “duration of glutamate undershoot” value in series [3] (100 μM glutamate) was “approximately 10 hours”. Also, in series [3] (100 μM glutamate several hours before, 200 μM THA), the “THA induced glutamate release during undershoot” value is “induced less glutamate release”. The “[Glu]o undershoot level after glutamate challenge” value in series [3] (100 μM glutamate, P22 astrocyte culture) was “≈ 0.4 μM”.
